Laboratory results as given in paper PMC3266722 (Journal of Medicinal Chemistry, 2011).
pEC50: −log10 of the molar value.

Columns and labels:
[1] = target: T1, hA2BAR (Homo sapiens, UniProt P29275); conditions: read-out: EC50, cyclic AMP accumulation at hA2BAR; CHO cells; cited from earlier work
T1 sequence (P29275 1-332): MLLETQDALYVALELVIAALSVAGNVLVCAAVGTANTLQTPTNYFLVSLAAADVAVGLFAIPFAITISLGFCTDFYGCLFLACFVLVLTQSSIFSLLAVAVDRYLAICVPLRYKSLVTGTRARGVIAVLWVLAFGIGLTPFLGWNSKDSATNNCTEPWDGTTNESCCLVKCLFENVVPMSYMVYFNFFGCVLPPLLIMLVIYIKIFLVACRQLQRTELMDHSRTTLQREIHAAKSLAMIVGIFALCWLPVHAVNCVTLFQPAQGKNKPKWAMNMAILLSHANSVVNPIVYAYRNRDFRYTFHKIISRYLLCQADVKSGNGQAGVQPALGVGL

[2] = target: T2, hA2AAR (Homo sapiens, UniProt P29274); conditions: compared to the standard CGS21680; cited from earlier work
[3] = target: T3, hA1AR (Homo sapiens, UniProt P30542); conditions: percent inhibition of specific radioligand binding at 10 μM; ref [11]; cited from earlier work
T3 sequence (P30542 1-326): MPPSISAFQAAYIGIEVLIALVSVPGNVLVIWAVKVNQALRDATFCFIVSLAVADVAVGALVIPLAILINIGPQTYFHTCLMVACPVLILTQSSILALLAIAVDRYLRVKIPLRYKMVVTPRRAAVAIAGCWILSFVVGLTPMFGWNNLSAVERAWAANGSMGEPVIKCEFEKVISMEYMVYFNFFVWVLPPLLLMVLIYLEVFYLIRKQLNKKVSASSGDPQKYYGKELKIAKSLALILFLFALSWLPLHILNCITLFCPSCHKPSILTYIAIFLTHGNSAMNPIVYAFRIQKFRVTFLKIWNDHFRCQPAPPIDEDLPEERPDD

[4] = target: T2, hA2AAR; conditions: percent inhibition of specific radioligand binding at 10 μM; ref [11]; cited from earlier work
[5] = target: T2, hA2AAR; assay: Radioligand binding assay at human A2A receptor; conditions: ratio of Ki values

T2 sequence (P29274 whole entry): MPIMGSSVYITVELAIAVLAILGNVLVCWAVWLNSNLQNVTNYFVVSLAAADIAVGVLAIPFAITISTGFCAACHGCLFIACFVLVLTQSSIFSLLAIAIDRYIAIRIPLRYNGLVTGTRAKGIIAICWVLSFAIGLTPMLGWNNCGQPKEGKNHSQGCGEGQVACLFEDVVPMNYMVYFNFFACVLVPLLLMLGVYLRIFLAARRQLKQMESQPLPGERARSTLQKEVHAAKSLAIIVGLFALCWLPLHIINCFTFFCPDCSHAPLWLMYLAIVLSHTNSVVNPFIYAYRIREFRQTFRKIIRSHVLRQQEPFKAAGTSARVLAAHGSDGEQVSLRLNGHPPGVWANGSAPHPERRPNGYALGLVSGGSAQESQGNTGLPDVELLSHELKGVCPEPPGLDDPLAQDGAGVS

Row | SMILES | pEC50 [1] | agonist efficacy at hA2AAR [2] | Affinity (% inhibition) hA1 [3] [%] | Affinity (% inhibition) hA2A [4] [%] | decrease of hA2AAR binding affinity in comparison to 4g [5] [fold]
1 | CCCCC#Cc1nc(N)c2ncn([C@@H]3SCC(O)C3O)c2n1 (stereo in doubt) [Compound 4g, (−)-(2R,3S,4R)-2-(6-Amino-2-(hex-1-ynyl)-9H-purin-9-yl)tetrahydrothiophene-3,4-diol] | ~5.00 | full agonist | 39 ± 10 |  | 
2 | CCCC/C=C/c1nc(N)c2ncn([C@@H]3SC[C@@H](O)[C@H]3O)c2n1 [Compound 4m] |  |  | 16.2 ± 8.4 |  | 
3 | CCCCC#Cc1nc2c(N)ncnc2n1[C@@H]1SCC(O)C1O (stereo in doubt) [Compound 4o, (−)-(2R,3S,4R)-2-(6-Amino-8-(hex-1-ynyl)-9H-purine-9-yl)-tetrahydrothiophene-3,4-diol] |  |  | 49.3 ± 4.9 | 46.5 ± 4.3 | 
4 | CCCCC#Cc1nc(NCc2cccc(Cl)c2)c2ncn([C@@H]3SCC(O)C3O)c2n1 (stereo in doubt) [Compound 4i, (−)-(2R,3S,4R)-2-(6-(3-Chlorobenzylamino)-2-(hex-1-ynyl)-9H-purin-9-yl)tetrahydrothiophene-3,4-diol] |  |  |  |  | 520
5 | CCCC/C=C/c1nc2c(N)ncnc2n1[C@@H]1SCC(O)C1O (stereo in doubt) [Compound 4r, (−)-(2R,3S,4R)-2-(6-Amino-8-(hex-1-enyl)-9H-purine-9-yl)-tetrahydrothiophene-3,4-diol] |  |  | 3.7 ± 2.9 | 22.8 ± 6.4 | 
